The nature of series [1]: Release rate of octreotide from polyurethane implantable devices. It is filed as physicochemical. Conditions: Tecophilic HP-60D-05, 5.5% EWC. The source says: (§1) Tables 2A-D show release rates of octreotide from three different classes of polyurethane compounds (Tecophilic®, Tecoflex® and Carbothane®). The release rates have been normalized to surface area of the implant, thereby adjusting for slight differences in the size of the various implantable devices. Octreotide is water-soluble as indicated by the Log P value; for the purposes of the data provided, a Log P value of greater than about 2.0 is considered to be not readily soluble in aqueous solution. The polyurethanes were selected to have varying affinities for water soluble active agents and varying flexibility (as indicated by the variation in flex modulus).
Polyurethanes are available or can be prepared, for example, with a range of EWCs or flex moduli (Table 2). Tables 2A-B show normalized release rates for various active ingredients from polyurethane compounds. Tables […] show the non-normalized release rates for the same active ingredients, together with implant composition.

Series [2] in a line: Log P (partition coefficient). It is filed as physicochemical.
Description: as §1
The solubility of an active agent in an aqueous environment can be measured and predicted based on its partition coefficient (defined as the ratio of concentration of compound in aqueous phase to the concentration in an immiscible solvent). The partition coefficient (P) is a measure of how well a substance partitions between a lipid (oil) and water. The measure of solubility based on P is often given as Log P. In general, solubility is determined by Log P and melting point (which is affected by the size and structure of the compounds). Typically, the lower the Log P value, the more soluble the compound is in water. […]

By logP is commonly meant a log measure of how a compound divides between an organic and an aqueous phase.

Each structure is given as a SMILES string.

On to `C[C@@H](O)[C@@H]1NC(=O)[C@H](CCCCN)NC(=O)[C@@H](Cc2c[nH]c3ccccc23)NC(=O)[C@H](Cc2ccccc2)NC(=O)[C@@H](NC(=O)[C@H](N)Cc2ccccc2)CSSC[C@@H](C(=O)N[C@H](CO)[C@@H](C)O)NC1=O` [Octreotide Acetate], for which the non-normalized release rate in series [1] turned out to be 0. Besides, the “release rate normalized to surface area of the implant” value in series [1] (10% HPC, 2% SA, 50 mg API) is reported as 0. Besides, the logP in series [2] came out at 0.43.
